Publication PMC10579241, “Impact of trifluoromethyl and sulfonyl groups on the biological activity of novel aryl-urea derivatives: synthesis, in-vitro, in-silico and SAR studies” (Scientific Reports, 2023)
Values after ≈ are worked out from the molar mass of the structure shown. Where two headings read alike, the source gives them in different places. Marks after values point to notes of the source that are not given here.

Tests used:
Candida albicans [1] = assay: Agar well diffusion, C. albicans; format: cell-based; details: for zone of inhibition at 10000 µg/mL: Candida albicans, read-out: Inhibition zones diameter
in vitro = format: cell-based; details: human, BJ1 normal skin fibroblast cells, 100 μg/mL
Bacillus mycoides [2] = assay: microbe, parasite or virus in culture; format: cell-based; details: for zone of inhibition at 10000 µg/mL: Bacillus mycoides, read-out: Inhibition zones diameter
[3] = system: osteosarcoma cell line (HOS); assay: cells; format: cell-based; details: Homo sapiens, 48 h; for mortality at 100 µg/mL: 100 μg/mL
[4] = system: pancreatic cancer cell line (PACA2); assay: cells; format: cell-based; details: Homo sapiens, PaCa-2, 48 h; for IC50: MTT; for mortality at 100 µg/mL: 100 μg/mL
Bacillus mycoides [5] = assay: microbe, parasite or virus in culture; format: cell-based
[6] = system: human lung carcinoma (A549); assay: cells; format: cell-based; details: for mortality at 100 µg/mL: A549, 48 h, 100 μg/mL
Candida albicans [7] = assay: MIC by serial dilution (agar wells), C. albicans; format: cell-based
colon cancer (HCT116) = assay: cells; format: cell-based; details: Homo sapiens; for mortality at 100 µg/mL: HCT-116, 48 h, 100 μg/mL
Escherichia coli [8] = assay: Agar well diffusion, E. coli; format: cell-based; details: Escherichia coli, read-out: Inhibition zones diameter
prostate cancer (PC3) = assay: cells; format: cell-based; details: Homo sapiens, 48 h; for mortality at 100 µg/mL: 100 μg/mL
skin cancer (A431) = assay: cells; format: cell-based; details: Homo sapiens, A-431, 100 μg/mL, 48 h
Escherichia coli [9] = assay: MIC by serial dilution (agar wells), E. coli; format: cell-based
[10] = system: hepatocellular carcinoma cell line (HePG2); assay: cells; format: cell-based; details: Homo sapiens, 48 h
[11] = system: normal skin fibroblast cell line (BJ1); assay: cells; format: cell-based; details: Homo sapiens, Skin fibroblast, MTT, 48 h
PALB2 = assay: qRT-PCR, PALB2 in PACA2 cells; format: cell-based, human; details: versus negative untreated sample
PACA2 [12] = assay: DNA fragmentation assay, PACA2; format: cell-based, human
PACA2 [13] = assay: DNA damage, comet assay, PACA2; format: cell-based, human
CDKN2A = assay: qRT-PCR, CDKN2A in PACA2 cells; format: cell-based, human; details: versus negative untreated sample
[14] = read-out: Minimum inhibition concentration (MIC)
[15] = 0.00488 mg/mL, 150 µL in DMSO, 15 mm agar well
[16] = 0.00975 mg/mL, 150 µL in DMSO, 15 mm agar well
[17] = 0.0195 mg/mL, 150 µL in DMSO, 15 mm agar well
[18] = 0.0391 mg/mL, 150 µL in DMSO, 15 mm agar well
[19] = 0.0781 mg/mL, 150 µL in DMSO, 15 mm agar well
[20] = 0.1563 mg/mL, 150 µL in DMSO, 15 mm agar well
[21] = 0.3125 mg/mL, 150 µL in DMSO, 15 mm agar well
[22] = 0.625 mg/mL, 150 µL in DMSO, 15 mm agar well
[23] = 1.25 mg/mL, 150 µL in DMSO, 15 mm agar well
[24] = 2.50 mg/mL, 150 µL in DMSO, 15 mm agar well
[25] = 5.00 mg/mL, 150 µL in DMSO, 15 mm agar well
[26] = 10.0 mg/mL, 150 µL in DMSO, 15 mm agar well

Structure (SMILES): Cc1ccc(S(=O)(=O)NC(=O)Nc2ccccc2C(F)(F)F)cc1 [Compound 11, 4-Methyl-N-[(2-{trifluoromethyl}phenyl)carbamoyl]benzenesulfonamide]
- Inhibition zones diameter (Candida albicans [1]; C. albicans, 200 μL of 10 mg/mL in DMSO in 15 mm holes, overnight 37 °C): 32 ± 0.17 mm
- zone of inhibition at 10000 µg/mL (Candida albicans [1]): 32 mm
- mortality at 48 h, 100 µg/mL (in vitro): 19.2 ± 0.57%
- Inhibition zones diameter (Bacillus mycoides [2]; B. mycoides, 200 μL of 10 mg/mL in DMSO in 15 mm holes, overnight 37 °C): 31 ± 0.52 mm
- zone of inhibition at 10000 µg/mL (Bacillus mycoides [2]): 31 mm
- mortality at 100 µg/mL [3]: 44.2 ± 1.11%
- IC50 [4]: 80.7 µM
- zone of inhibition at 4.88 µg/mL (Bacillus mycoides [5]; read-out: Inhibition zone): 0 mm
- zone of inhibition at 9.75 µg/mL (Bacillus mycoides [5]; read-out: Inhibition zone): 0 mm
- zone of inhibition at 19.5 µg/mL (Bacillus mycoides [5]; read-out: Inhibition zone): 0 mm
- zone of inhibition at 39.1 µg/mL (Bacillus mycoides [5]; read-out: Inhibition zone): 15 mm
- zone of inhibition at 78.1 µg/mL (Bacillus mycoides [5]; read-out: Inhibition zone): 16 mm
- zone of inhibition at 156.3 µg/mL (Bacillus mycoides [5]; read-out: Inhibition zone): 16 mm
- zone of inhibition at 312.5 µg/mL (Bacillus mycoides [5]; read-out: Inhibition zone): 17 mm
- zone of inhibition at 625 µg/mL (Bacillus mycoides [5]; read-out: Inhibition zone): 17 mm
- zone of inhibition at 1250 µg/mL (Bacillus mycoides [5]; read-out: Inhibition zone): 18 mm
- zone of inhibition at 2500 µg/mL (Bacillus mycoides [5]; read-out: Inhibition zone): 22 mm
- zone of inhibition at 5000 µg/mL (Bacillus mycoides [5]; read-out: Inhibition zone): 24 mm
- zone of inhibition at 10000 µg/mL (Bacillus mycoides [5]; read-out: Inhibition zone): 27 mm
- MIC (Bacillus mycoides [5]; [14]): 39.1 µg/mL (≈ 109 µM)
- IC50 ([6]; MTT, 48 h): 149.3 ± 0.23 µM
- zone of inhibition at 4.88 µg/mL (Candida albicans [7]; [15]): 0 mm
- zone of inhibition at 9.75 µg/mL (Candida albicans [7]; [16]): 0 mm
- zone of inhibition at 19.5 µg/mL (Candida albicans [7]; [17]): 0 mm
- zone of inhibition at 39.1 µg/mL (Candida albicans [7]; [18]): 0 mm
- zone of inhibition at 78.1 µg/mL (Candida albicans [7]; [19]): 16 mm
- zone of inhibition at 156.3 µg/mL (Candida albicans [7]; [20]): 17 mm
- zone of inhibition at 312.5 µg/mL (Candida albicans [7]; [21]): 20 mm
- zone of inhibition at 625 µg/mL (Candida albicans [7]; [22]): 22 mm
- zone of inhibition at 1250 µg/mL (Candida albicans [7]; [23]): 24 mm
- zone of inhibition at 2500 µg/mL (Candida albicans [7]; [24]): 25 mm
- zone of inhibition at 5000 µg/mL (Candida albicans [7]; [25]): 26 mm
- zone of inhibition at 10000 µg/mL (Candida albicans [7]; [26]): 28 mm
- MIC (Candida albicans [7]; [14]): 78.1 µg/mL (≈ 218 µM)
- mortality at 100 µg/mL (colon cancer (HCT116)): > 75%
- IC50 (colon cancer (HCT116); HCT-116, MTT, 48 h): 161.6 ± 0.24 µM
- zone of inhibition at 10000 µg/mL (Escherichia coli [8]): 27 ± 0.58 mm
- IC50 (prostate cancer (PC3); MTT): 114.7 ± 0.21 µM
- mortality at 100 µg/mL (skin cancer (A431)): 10.5 ± 1.13%
- zone of inhibition at 4.88 µg/mL (Escherichia coli [9]; [15]): 0 mm
- zone of inhibition at 9.75 µg/mL (Escherichia coli [9]; [16]): 0 mm
- zone of inhibition at 19.5 µg/mL (Escherichia coli [9]; [17]): 0 mm
- zone of inhibition at 39.1 µg/mL (Escherichia coli [9]; [18]): 0 mm
- zone of inhibition at 78.1 µg/mL (Escherichia coli [9]; [19]): 0 mm
- zone of inhibition at 156.3 µg/mL (Escherichia coli [9]; [20]): 16 mm
- zone of inhibition at 312.5 µg/mL (Escherichia coli [9]; [21]): 18 mm
- zone of inhibition at 625 µg/mL (Escherichia coli [9]; [22]): 20 mm
- zone of inhibition at 1250 µg/mL (Escherichia coli [9]; [23]): 22 mm
- zone of inhibition at 2500 µg/mL (Escherichia coli [9]; [24]): 24 mm
- zone of inhibition at 5000 µg/mL (Escherichia coli [9]; [25]): 28 mm
- zone of inhibition at 10000 µg/mL (Escherichia coli [9]; [26]): 30 mm
- MIC (Escherichia coli [9]; [14]): 156 µg/mL (≈ 436 µM)

Structure (SMILES): Cc1ccc(NC(=O)Nc2ccc(C(F)(F)F)cc2)cc1 [Compound 13, 1-(p-Tolyl)-3-[4-(trifluoromethyl)phenyl]urea]
- zone of inhibition at 10000 µg/mL (Candida albicans [1]): 18 ± 0.66 mm
- mortality at 48 h, 100 µg/mL (in vitro): 84.2 ± 1.61%
- zone of inhibition at 10000 µg/mL (Bacillus mycoides [2]): 16 ± 0.41 mm
- mortality at 100 µg/mL [3]: ~74.3%
- mortality at 100 µg/mL [4]: 35.8 ± 0.91%
- mortality at 100 µg/mL ([10]; 100 μg/mL): 100%
- IC50 ([10]; MTT): 121.7 ± 0.85 µM
- mortality at 100 µg/mL [6]: 3.5 ± 0.55%
- mortality at 100 µg/mL (colon cancer (HCT116)): 11.5 ± 1.19%
- zone of inhibition at 10000 µg/mL (Escherichia coli [8]): 18 ± 1.84 mm
- mortality at 100 µg/mL (prostate cancer (PC3)): 47.2 ± 0.63%
- mortality at 100 µg/mL (skin cancer (A431)): 1.3 ± 0.78%

Structure (SMILES): Cc1ccc(NC(=O)Nc2cc(C(F)(F)F)cc(C(F)(F)F)c2)cc1 [Compound 15, 1-[3,5-Bis(trifluoromethyl)phenyl]-3-(p-tolyl)urea]
- zone of inhibition at 10000 µg/mL (Candida albicans [1]): 24 ± 1.22 mm
- IC50 [11]: 94.4 ± 0.71 µM
- PALB2 gene expression level (PALB2): significantly reduced
- zone of inhibition at 10000 µg/mL (Bacillus mycoides [2]): 23 ± 0.35 mm
- Change (DNA fragmentation versus untreated cells) (PACA2 [12]): 20.20
- DNA fragmentation % M ± SEM (PACA2 [12]; IC50 concentration, 24 h): 32.3 ± 0.74^ab %
- Inhibition (PACA2 [12]; doxorubicin = 0.0): 12.22
- IC50 ([3]; MTT): 37.3 ± 0.37 µM
- DNA damaged cells % (mean ± SEM) (PACA2 [13]): 21.00 ± 1.29^a %
- Class 0 (no tail), number of cells (PACA2 [13]; of 400 cells analyzed): 316
- Class 1 (tail length < diameter of nucleus), number of cells (PACA2 [13]; of 400 cells analyzed): 31
- Class 2 (tail length between 1 and 2 × the diameter of nucleus), number of cells (PACA2 [13]; of 400 cells analyzed): 25
- Class 3 (tail length > 2 × the diameter of nucleus), number of cells (PACA2 [13]; of 400 cells analyzed): 28
- No. of cells, Comets (PACA2 [13]; of 400 cells analyzed): 84
- mortality at 100 µg/mL [4]: > 75%
- IC50 [4]: 82.5 ± 0.21 µM
- mortality at 100 µg/mL [6]: > 50%
- mortality at 100 µg/mL (colon cancer (HCT116)): 49.6 ± 1.23%
- zone of inhibition at 10000 µg/mL (Escherichia coli [8]): 24 ± 0.68 mm
- CDKN2A gene expression level (CDKN2A): significantly reduced
- mortality at 100 µg/mL (prostate cancer (PC3)): > 75%
